Results on three compounds are retold here after patent US11389435B2, “Compositions and methods for treating epilepsy” (BIOVISTA, INC., priority 2008, dated 2022).

Marks after values point to notes of the source that are not given here.

In series [1] the test system is NMDA receptor. Conditions: Grigoriev et al. Chim. Pharm. Journal, 1988; cited from earlier work.
The conditions of series [2]: at the doses in which it produces its anti-NMDA effect; cited from earlier work.
The test system of series [3] is Male Wistar rats. Description: Chronic anticonvulsant activity using the kainic acid seizure test in rat. It counts as in vivo. Conditions: for Wet-shakes Presence: 120 min observation; for Wet-shakes Presence / Rearings Presence / Rearings with Forelimb Clonus Presence: out of 10 animals; for Forelimb Clonus No.: average number of all animals; for Rearings Latency / Rearings with Forelimb Clonus Latency / Wet-shakes Latency: average of all animals. From the text:
Chronic Anticonvulsant Activity Using the Kainic Acid Seizure Test in Rat. Dimebolins, including the compounds described herein, are shown to be efficacious in the rat kainic acid anticonvulsant activity model. It is appreciated that this model, though general, may also most closely correspond to and/or be more predictive of temporal lobe epilepsy found in humans. However, it is to be understood that this model is a general surrogate for all types of epilepsy.
Male Wistar rats (such as Male Rj: Wistar (Han) rats, weighing 180-280 g at the day of testing, from Elevage Janvier, 53940 Le Genest-Saint-Isle, France) are placed in groups of 4-5 in macrolon cages (41×25×18 cm or 44×28×19 cm) on wood litter (Litalabo—SPPS, 95100 Argenteuil, France), with free access to food and water until tested, and maintained under artificial lighting (12 hours) between 7:00 and 19:00 in a controlled ambient temperature of about 21° C., and relative humidity between 30-80%. Animals are acclimatized to laboratory conditions for least 3 days. Animals surviving the experiments are sacrificed at the end of the experiments by exposure to a mixture of O2/CO2 (20%/80%) followed by CO2.
Dimebon, or an analog or derivative thereof, either alone or in combination with one or more other compounds as described herein, is evaluated at 3 doses (e.g. 1, 3, and 10 mg/kg), administered i.p. once daily for seven days, with a administration volume of 5 mL/kg. The last administration (7th) is injected 30 minutes prior to kainic acid administration, and compared with a vehicle control group. The test article (single compound or combination) is prepared in 0.2% HPMC in physiological saline as follows: The test article is tested for solubility by cold stirring of the highest intended dose for 10 minutes in physiological saline. If soluble, physiological saline serves as vehicle, and doses are prepared W/V (stock) and then V/V (serial dilutions). Preparations may be made freshly for each day of administration and precautions may be taken to preserve the homogeneity of suspensions (if applicable) during the period of administration.
Diazepam (4 mg/kg i.p.) is administered in 0.2% HPMC in physiological saline 30 minutes prior to KA, and is used as reference substance (positive control). Kainic acid (12 mg/kg i.p.) dissolved in physiological saline is administered 30 minutes following the 7th administration of test article, diazepam, or vehicle control. Additional details are described in Ben-Ari et al, Neuroscience, 6, 1361-1391, 1981 for detecting anticonvulsant activity related to a glutamatergic mechanism.
Animals are injected with kainic acid (12 mg/kg i.p.). The occurrences of the following symptoms are noted over a 120 minute period after kainic acid injection: wet-shakes, rearings, and rearings with forelimb clonus. […] In addition, the latencies to the first appearance of the symptoms are measured and the number of forelimb clonus are counted. The number of forelimb clonus episodes per time interval starting from the first occurrence of forelimb clonus will be considered regarding the severity scale. 10 animals are studied per group. The test is performed blind. Quantitative data is analyzed by comparing treated groups with vehicle control using unpaired Student's t tests. Quantal data is analyzed by comparing treated groups with vehicle control using Fisher's Exact Probability tests.

The subject of series [4] is Male Wistar rats. In words: Acute anticonvulsant activity using the kainic acid seizure test in rat. Conditions: single dose 100 mg/kg i.p. 60 minutes prior to kainic acid. It counts as in vivo. The procedure: Male Wistar rats (such as Male Rj: […] Animals are acclimatized to laboratory conditions for least 3 days. […] Additional details are described in Ben-Ari et al, Neuroscience, 6, 1361-1391, 1981 for detecting anticonvulsant activity related to a glutamatergic mechanism. Animals are injected with kainic acid (12 mg/kg i.p.). The occurrences of the following symptoms are noted over a 120 minute period after kainic acid injection: wet-shakes, rearings, and rearings with forelimb clonus. […] In addition, the latencies to the first appearance of the symptoms are measured and the number of forelimb clonus are counted. The number of forelimb clonus episodes per time interval starting from the first occurrence of forelimb clonus will be considered regarding the severity scale. 10 animals are studied per group. The test is performed blind. Quantitative data is analyzed by comparing treated groups with vehicle control using unpaired Student's t tests. Quantal data is analyzed by comparing treated groups with vehicle control using Fisher's Exact Probability tests. Acute Anticonvulsant Activity Using the Kainic Acid Seizure Test in Rat. Dimebon, or an analog or derivative thereof, including the compounds described herein, is shown to be efficacious in the rat kainic acid anticonvulsant activity model. […] The 100 mg/kg formulation is prepared in 0.2% HPMC in physiological saline.

Where [5] appears, read: reference substance 4 mg/kg i.p. 30 minutes prior to kainic acid.
[6] abbreviates: reference substance 4 mg/kg i.p. 30 minutes prior to kainic acid 12 mg/kg i.p.
The mark [7] stands for this setting: 1 mg/kg i.p. once daily 7 days, last 30 min before kainic acid.
Where [8] appears, read: 1 mg/kg i.p. once daily 7 days, last 30 min before kainic acid 12 mg/kg i.p.
The mark [9] stands for this setting: 3 mg/kg i.p. once daily 7 days, last 30 min before kainic acid.
[10] abbreviates: 3 mg/kg i.p. once daily 7 days, last 30 min before kainic acid 12 mg/kg i.p.
Where [11] appears, read: 10 mg/kg i.p. once daily 7 days, last 30 min before kainic acid.
Where [12] appears, read: 10 mg/kg i.p. once daily 7 days, last 30 min before kainic acid 12 mg/kg i.p.

As for `NC(CCCP(=O)(O)O)C(=O)O` (stereo not drawn) [AP5, 2-amino-5-phosphonovaleric acid], in series [1], the “ED50 (anti-NMDA effect)” value is recorded as 190 mg/kg. Also, the neurotoxic effects entry in series [2] was “disturbance of coordination of movement and a sedative effect”.
`CN1C(=O)CN=C(c2ccccc2)c2cc(Cl)ccc21` [Diazepam]: in series [3] (setting [5]), the “Forelimb Clonus No., % change from vehicle” value (shortened to “Forelimb Clonus No., % change”) is −79%; the “Rearings Latency, % change from vehicle” value is on record as “+8%”; the “Rearings Presence, % change from vehicle” value was determined as 0%; the “Rearings with Forelimb Clonus Latency, % change from vehicle” value was “+36%”. In addition, in series [3] (setting [5]), the “Rearings with Forelimb Clonus Presence, % change from vehicle” value is on record as −60%; the “Wet-shakes Latency, % change from vehicle” value (“Wet-shakes Latency, % change” for short) is reported as “+53%”; the “Wet-shakes Presence, % change from vehicle” value (shortened to “Wet-shakes Presence, % change”) is reported as −10%. Also, in series [3] (setting [6]), the “Wet-shakes Presence” value was 9 ^NS, the “Forelimb Clonus No.” value was 0.6 **, the “Rearings Latency” value is given as 4282 ^NS seconds and the “Rearings with Forelimb Clonus Latency” value is recorded as 6841 *** seconds. Further, in series [3] (setting [6]), the “Wet-shakes Latency” value is recorded as 3753 * seconds, the “Rearings Presence” value is on record as 9 ^NS and the “Rearings with Forelimb Clonus Presence” value was 4 *^.
Regarding `Cc1ccc2c(c1)c1c(n2CCc2ccc(C)nc2)CCN(C)C1` [Dimebon, 2,8-dimethyl-5-[2-(6-methyl-3-pyridyl)ethyl]-2,3,4,5-tetrahydro-1H-pyrido[4,3-b]indole], in series [3] (setting [7]), the “Forelimb Clonus No., % change” value is −32%; the “Rearings Latency, % change from vehicle” value is listed as “+24%”; the “Rearings Presence, % change from vehicle” value is on record as −33%; the “Rearings with Forelimb Clonus Latency, % change from vehicle” value was “+19%”. In addition, in series [3] (setting [7]), the “Rearings with Forelimb Clonus Presence, % change from vehicle” value is −30%; the “Wet-shakes Latency, % change” value is “+47%^(h)”; the “Wet-shakes Presence, % change” value is given as −20%^(g). Moreover, in series [3] (setting [8]), the “Wet-shakes Presence” value was 8 ^NS, the “Forelimb Clonus No.” value is 1.9 ^NS, the “Rearings Latency” value is reported as 4896 ^NS seconds and the “Rearings with Forelimb Clonus Latency” value is on record as 6009 * seconds. Besides, in series [3] (setting [8]), the “Wet-shakes Latency” value is 3615 ^NS seconds, the “Rearings Presence” value is 6 ^NS and the “Rearings with Forelimb Clonus Presence” value is listed as 7 ^NS. Further, in series [3] (setting [9]), the “Forelimb Clonus No., % change” value is given as −11%; the “Rearings Latency, % change from vehicle” value is listed as “+4%”; the “Rearings Presence, % change from vehicle” value came out at 0%; the “Rearings with Forelimb Clonus Latency, % change from vehicle” value was “+7%”. In addition, in series [3] (setting [9]), the “Rearings with Forelimb Clonus Presence, % change from vehicle” value is −10%; the “Wet-shakes Latency, % change” value is listed as “+9%”; the “Wet-shakes Presence, % change” value came to 0%. Moreover, in series [3] (setting [10]), the “Wet-shakes Presence” value was 10 ^NS, the “Forelimb Clonus No.” value is listed as 2.5 ^NS, the “Rearings Latency” value was 4134 ^NS seconds and the “Rearings with Forelimb Clonus Latency” value was 5366 ^NS seconds. Besides, in series [3] (setting [10]), the “Wet-shakes Latency” value is on record as 2666 ^NS seconds, the “Rearings Presence” value is recorded as 9 ^NS and the “Rearings with Forelimb Clonus Presence” value is 9 ^NS. In series [3] (setting [11]), the “Forelimb Clonus No., % change” value is −18%; the “Rearings Latency, % change from vehicle” value is “+14%”; the “Rearings Presence, % change from vehicle” value is −11%; the “Rearings with Forelimb Clonus Latency, % change from vehicle” value is given as “+7%”. In series [3] (setting [11]), the “Rearings with Forelimb Clonus Presence, % change from vehicle” value is given as −10%; the “Wet-shakes Latency, % change” value is on record as “+17%”; the “Wet-shakes Presence, % change” value came to 0%. Besides, in series [3] (setting [12]), the “Wet-shakes Presence” value was 10 ^NS, the “Forelimb Clonus No.” value is given as 2.3 ^NS, the “Rearings Latency” value was 4526 ^NS seconds and the “Rearings with Forelimb Clonus Latency” value is reported as 5410 ^NS seconds. In series [3] (setting [12]), the “Wet-shakes Latency” value is on record as 2865 ^NS seconds, the “Rearings Presence” value is recorded as 8 ^NS and the “Rearings with Forelimb Clonus Presence” value is listed as 9 ^NS. Further, in series [4], the “Forelimb Clonus No., % change” value was −54%; the “Rearings Latency, % change from vehicle” value was “+57%”; the “Rearings Presence, % change from vehicle” value is −78%; the “Rearings with Forelimb Clonus Latency, % change from vehicle” value is −10%. Moreover, in series [4], the “Rearings with Forelimb Clonus Presence, % change from vehicle” value is −40%; the “Wet-shakes Latency, % change” value is given as “+79%^(f)”; the “Wet-shakes Presence, % change” value is −50%^(e). In addition, the “Forelimb Clonus No.” value in series [4] (average number of all animals) was 1.3 ^NS. Further, in series [4] (average of all animals), the “Rearings Latency” value was 6197 * seconds, the “Rearings with Forelimb Clonus Latency” value was 4546 ^NS seconds and the “Wet-shakes Latency” value is given as 4394 ^NS seconds. In series [4] (out of 10 animals), the “Rearings Presence” value is listed as 2 *, the “Rearings with Forelimb Clonus Presence” value is 6 ^NS and the “Wet-shakes Presence” value was 5 ^NS.
